≈ marks a conversion by molar mass, not a printed value.
How the values were obtained:
Assay type in all cases: functional
[1] = tested on: Candida albicans; assay: Antibiofilm activity against Candida albicans ATCC 10231 after 24 hrs by XTT reduction assay
[2] = tested on: Candida albicans; assay: Antifungal activity against planktonic cells of Candida albicans ATCC 10231 after 48 hrs by microdilution assay; settings: ATCC 10231, 48 h
[3] = tested on: Candida albicans; assay: Antibiofilm activity against mature biofilm of Candida albicans ATCC 10231 after 24 hrs by XTT reduction assay

| Compound | MBIC50 [1] | MIC50 [2] [µg/mL] | MBIC50 [3] |
| --- | --- | --- | --- |
| O=C(/C=C/c1ccccc1)NCCCn1ccnc1 | >128 µg/mL | > 128 | >128 µg/mL |
| OC(Cn1cncn1)(Cn1cncn1)c1ccc(F)cc1F [FLUCONAZOLE] | 128 µg/mL | 0.5 (≈ 1.63 µM) | >128 µg/mL |
| O=C(/C=C/c1ccccc1)N1CCN(c2ccc([N+](=O)[O-])cc2)CC1 | >128 µg/mL | 32 to 128 (≈ 94.8 to 379 µM) | >32 to 128 µg/mL |
| Cc1ncc([N+](=O)[O-])n1CCOC(=O)/C=C/c1ccccc1 | >=32 - 128 ug ml-1 | ≥ 128 | >128 µg/mL |
| O=C(/C=C/c1ccccc1)OCc1ccco1 | >=16 - 128 ug ml-1 | 64 to 128 (≈ 280 to 561 µM) | >=128 ug ml-1 |
| O=C(/C=C/c1ccccc1)OC(Cn1cncn1)(Cn1cncn1)c1ccc(F)cc1F | 4 to 128 µg/mL | 0.5 to 64 (≈ 1.15 to 147 µM) | >32 to 128 µg/mL |
| O=C(/C=C/c1ccccc1)Nc1nc2ccc([N+](=O)[O-])cc2s1 | >=64 - 128 ug ml-1 | > 128 | >=64 - 128 ug ml-1 |
| O=C(/C=C/c1ccccc1)OCc1ccc([N+](=O)[O-])o1 | 16 to 64 µg/mL | 2 to 16 (≈ 7.32 to 58.6 µM) | 64 µg/mL |
| O=C(/C=C/c1ccccc1)N1CCN(c2ncccc2[N+](=O)[O-])CC1 | >128 µg/mL | > 128 | >128 µg/mL |
| O=C(O)/C=C/c1ccccc1 [CINNAMIC ACID] | >128 µg/mL | > 128 | >128 µg/mL |
| O=C(/C=C/c1ccccc1)NCCc1c[nH]c2ccccc12 | 8 to 128 µg/mL | > 128 | >128 µg/mL |
| O=C(/C=C/c1ccccc1)OC(Cn1ccnc1)c1ccc(Cl)cc1Cl (stereo unspecified) | 2 to 64 µg/mL | 2 to 16 (≈ 5.16 to 41.3 µM) | 8 to 64 µg/mL |
